Laboratory results: ChEMBL document CHEMBL5727535, “NK-3 receptor selective antagonist compounds, pharmaceutical composition and methods for use in NK-3 receptors mediated disorders” (2020)

Molecular target: T1, Neuromedin-K receptor (Homo sapiens, UniProt P29371)
T1 sequence (P29371 whole entry): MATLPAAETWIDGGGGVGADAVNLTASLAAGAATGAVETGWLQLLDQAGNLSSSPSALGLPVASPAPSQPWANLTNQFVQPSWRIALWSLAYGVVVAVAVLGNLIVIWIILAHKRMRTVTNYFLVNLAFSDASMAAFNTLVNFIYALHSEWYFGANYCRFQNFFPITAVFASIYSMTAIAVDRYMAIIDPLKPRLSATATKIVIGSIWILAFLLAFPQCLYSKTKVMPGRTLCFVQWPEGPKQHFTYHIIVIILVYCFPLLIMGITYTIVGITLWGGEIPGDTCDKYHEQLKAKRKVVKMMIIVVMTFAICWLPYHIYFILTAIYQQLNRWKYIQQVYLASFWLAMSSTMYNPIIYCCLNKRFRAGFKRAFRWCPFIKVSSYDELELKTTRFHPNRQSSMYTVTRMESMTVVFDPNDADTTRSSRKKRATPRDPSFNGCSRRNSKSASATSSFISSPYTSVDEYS
Assay: 3H-SB222200 Binding Competition Assay with Human NK-3 Receptor: The ability of the compounds of the invention to inhibit the binding of the NK-3 receptor selective antagonist SB222200 was assessed by an in vitro radioligand binding assay. Membranes were prepared from Chinese hamster ovary recombinant cells which express the human NK3 receptor. The membranes were incubated with 5 nM 3H-SB222200_(ARC) in a HEPES 25 mM/NaCl 0.1M/CaCl2 1 mM/MgCl2 5 Mm/BSA 0.5%/Saponin 10 μg/ml buffer at pH 7.4 and various concentrations of the compounds of the invention. The amount of tritiated SB222200 bound to the receptor was determined after filtration by the quantification of membrane associated radioactivity using the TopCount-NXT reader (Packard). Competition curves were obtained for compounds of the invention and the concentrations of compounds which displaced 50% of bound radioligand (IC50) were determined and then apparent inhibition constant Ki values were calculated by the following equation: Ki=IC50/(1+[L]/KD) where [L] is the concentration of free radioligand and KD is its dissociation constant at the receptor, derived from saturation binding experiments (Cheng and Prusoff, 1973).

Ki	Structure (SMILES)
< 500 nM	CC1c2nnc(-c3csc(-c4ccc(F)cc4)n3)n2CCN1C(=O)c1ccc(Cl)c(F)c1 (stereo not drawn)
< 500 nM	O=C(c1ccc(F)cc1)N1CCn2c(nnc2-c2csc(-c3ccc(Br)cc3)n2)C1
< 500 nM	O=C(c1ccc(-c2ccccc2)cc1)N1CCn2c(nnc2-c2csc(-c3ccccc3Cl)n2)C1
< 500 nM	O=C(c1ccc(F)cc1)N1CCn2c(nnc2-c2csc(-c3ccccc3Cl)n2)C1
< 500 nM	O=C(c1ccc(F)cc1)N1CCn2c(nnc2-c2csc(-c3ccc(Cl)cc3)n2)C1
< 500 nM	CC1c2nnc(-c3csc(-c4ccc(F)cc4)n3)n2CCN1C(=O)c1ccc(F)c(Cl)c1 (stereo not drawn)
< 500 nM	O=C(c1ccc(F)cc1)N1CCn2c(nnc2-c2ccc(Cl)cn2)C1
< 500 nM	O=C(c1ccc(F)cc1)N1CCn2c(nnc2-c2csc(-c3cccc(Cl)c3)n2)C1
< 500 nM	O=C(c1ccc(-c2cccs2)cc1)N1CCn2c(nnc2-c2csc(-c3ccccc3Cl)n2)C1
< 500 nM	C[C@@H]1c2nnc(-c3csc(-c4ccc(Cl)cc4)n3)n2CCN1C(=O)c1ccc(F)cc1
> 5000 nM	Cn1nc(C(=O)N2CCn3c(nnc3-c3ccccn3)C2)cc1-c1ccc(Cl)cc1

Continued, compound first:

Structure (SMILES)	Ki
O=C(c1ccc(-c2cccs2)cc1)N1CCn2c(nnc2-c2csc(-c3ccc(Br)cc3)n2)C1	< 500 nM
O=C(c1ccc(F)cc1)N1CCn2c(nnc2-c2csc(-c3cc(Cl)cc(Cl)c3)n2)C1	< 500 nM
O=C(c1ccc(-c2cccs2)cc1)N1CCn2c(nnc2-c2csc(Cc3ccc(Cl)cc3)n2)C1	< 500 nM
CC1c2nnc(-c3csc(-c4ccccc4Cl)n3)n2CCN1C(=O)c1ccc(F)cc1 (stereo not drawn)	< 500 nM
O=C(c1ccc(F)cc1)N1CCn2c(nnc2-c2csc(-c3cccc(Cl)c3Cl)n2)C1	< 500 nM
O=C(c1ccc(F)cc1)N1CCn2c(nnc2-c2csc(-c3ccc(Cl)cc3Cl)n2)C1	< 500 nM
CC1c2nnc(-c3csc(-c4ccc(F)cc4)n3)n2CCN1C(=O)c1ccc(Cl)c(Cl)c1 (stereo not drawn)	< 500 nM
